Here are results for 26 compounds from patent publication US6451814B1, “Heterocyclic β-3 adrenergic receptor agonists” (Wyeth, priority 2000, dated 2002).

For series [1], the target named is T1, human β3-adrenergic receptor (Homo sapiens, UniProt P13945).
T1 construct: Full length β3 AR clones (402 amino acids) containing the last 6 amino acids of hβ3—AR are prepared; expressed in transfected cells; host or cells: CHO cells
Nature of the series: cAMP response (SPA kit) in CHO cells transfected with human β3 adrenergic receptor. It is filed as cell-based. Particulars: for EC50: CHO cells expressing human β3-AR, 10^-9 M to 10^-5 M, 30 min at 37° C., cAMP by SPA, read-out: EC50(β3); for IA(β3): maximal response of compound compared to maximal response of isoproterenol at 10^-5 M, CHO cells, human β3-AR.

Structures can show the parent of a compound that is named as a salt.

T1 sequence (P13945 whole entry): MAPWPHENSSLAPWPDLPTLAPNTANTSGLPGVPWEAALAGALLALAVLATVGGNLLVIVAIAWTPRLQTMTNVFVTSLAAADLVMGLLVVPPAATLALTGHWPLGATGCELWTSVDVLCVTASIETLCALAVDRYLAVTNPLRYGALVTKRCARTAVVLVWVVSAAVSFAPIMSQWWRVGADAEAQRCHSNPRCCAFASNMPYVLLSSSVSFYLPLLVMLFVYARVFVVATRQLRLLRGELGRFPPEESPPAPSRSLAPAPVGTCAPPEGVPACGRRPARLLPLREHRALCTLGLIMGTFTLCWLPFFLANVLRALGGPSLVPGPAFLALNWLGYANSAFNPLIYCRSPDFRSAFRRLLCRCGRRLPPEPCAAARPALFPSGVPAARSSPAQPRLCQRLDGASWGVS

In general, melting point refers to the temperature, or range, at which the solid turns liquid. In turn, `CCOC(=O)C1CCCN(C(=O)N2CCC(Nc3ccc(CCNC[C@H](O)c4ccc(O)c(NS(C)(=O)=O)c4)cc3)CC2)C1` (stereo partly drawn) (as salt: salt) [Example 78, 1-[[4-[[4-[2-[[(2R)-2-Hydroxy-2-[4-hydroxy-3-[(methylsulfonyl)amino]phenyl]ethyl]amino]ethyl]phenyl]amino]-1-piperidinyl]carbonyl]-3-piperidine Carboxylic Acid, Ethyl Ester] yielded a melting point of 106 to 108 °C.
In the case of `CS(=O)(=O)Nc1cc([C@@H](O)CNCCc2ccc(NC3CCN(C(=O)c4ccc(C(=O)O)cc4)CC3)cc2)ccc1O` (as salt: salt) [Example 105, 4-[4-(4-{2-[(2R)-2-Hydroxy-2-(4-hydroxy-3-methanesulfonylamino-phenyl)-ethylamino]-ethyl}-phenylamino)-piperidine-1-carbonyl]-benzoic Acid], the melting point was over 200 °C.
Compound `CCCCCCCCNC(=O)N1CCC(Nc2ccc(CCNC[C@H](O)COc3ccc(O)c(NS(C)(=O)=O)c3)cc2)CC1` (as salt: salt) [Example 66, 4-(4-{2-[(2S)-2-Hydroxy-3-(4-hydroxy-3-methanesulfonylamino-phenoxy)-propylamino]-ethyl}-phenylamino)-piperidine-1-carboxylic Acidoctylamide] yielded a melting point of 115 to 117 °C.
As for `CCNC(=O)N1CCC(Nc2ccc(CCNC[C@H](O)COc3ccc(O)cc3)cc2)CC1` (as salt: salt) [Example 10, 4-(4-{2-[(2S)-2-Hydroxy-3-(4-hydroxy-phenoxy)-propylamino]-ethyl}-phenylamino)-piperidine-1-carboxylic Acid Ethylamide], the melting point fell in the range of 81 to 85 °C.
As for `O=C(NCc1ccc(Cl)cc1Cl)N1CCC(Nc2ccc(CCNC[C@H](O)COc3ccc(O)cc3)cc2)CC1` (as salt: ammonium) [Example 20, 4-(4-{2-[(2S)-2-Hydroxy-3-(4-hydroxy-phenoxy)-propylamino]-ethyl}-phenylamino)-piperidine-1-carboxylic Acid 2,4-dichloro-benzylamide], the melting point lay within 93 to 99 °C.
With `CCCCCCCCNC(=O)N1CCC(Nc2ccc(CCNCC(O)c3ccc(O)c(C(N)=O)c3)cc2)CC1` (centres unmarked) (as salt: salt) [Example 7, 4-(4-{2-[2-(3-Carbamoyl-4-hydroxy-phenyl)-2-hydroxy-ethylamino]-ethyl}-phenylamino)-piperidine-1-carboxylic Acid Octylamide], the melting point is 101 to 104 °C.
For the compound `CCCCCCCCNC(=O)N1CCC(C(=O)N2CCC(Nc3ccc(CCNC[C@H](O)COc4ccc(O)cc4)cc3)CC2)CC1` (as salt: salt) [Example 92, 4-[4-(4-{2-[(2S)-2-Hydroxy-3-(4-hydroxy-phenoxy)-propylamino]-ethyl}-phenylamino)-piperidine-1-carbonyl]-piperidine-1-carboxylic Acidoctylamide], the melting point is 88 to 91 °C.
Same read-out and setting: under `O=C(NCc1ccc(F)cc1)N1CCC(Oc2ccc(CCNC[C@H](O)COc3ccc(O)cc3)cc2)CC1` (as salt: salt) [Example 56, 4-(4-{2-[(2S)2-Hydroxy-3-(4-hydroxy-phenoxy)-propylamino]-ethyl}-phenoxy)-piperidine-1-carboxylic Acid 4-fluoro-benzylamide] stands 160 to 162 °C.
On the same count and under the same terms, under `CCN(CC)C(=O)N1CCC(Nc2ccc(CCNC[C@H](O)COc3ccc(O)cc3)cc2)CC1` [Example 14, 4-(4-{2-[(2S)-2-Hydroxy-3-(4-hydroxy-phenoxy)-propylamino]-ethyl}-phenylamino)-piperidine-1-carboxylic Acid Diethylamide] stands 61 to 65 °C; under `Cc1ccsc1C(=O)N1CCC(Nc2ccc(CCNC[C@H](O)COc3ccc(O)cc3)cc2)CC1` (as salt: salt) [Example 100, [4-(4-{2-[(2S)-2-Hydroxy-3-(4-hydroxy-phenoxy)-propylamino]-ethyl}-phenylamino)-piperidin-1-yl]-(3-methyl-thiophen-2-yl)-methanone], 88 to 90 °C.
The same measure, in the same setting: under `O=C(NCc1ccc(F)cc1)N1CCC(Nc2ccc(CCNC[C@H](O)COc3ccc(O)cc3)cc2)CC1` (as salt: salt) [Example 1, 4-(4-{2-[(2S)-2-Hydroxy-3-(4-hydroxy-phenoxy)-propylamino]-ethyl}-phenylamino)-piperidine-1-carboxylic Acid 4-fluoro-benzylamide] stands 89 to 91 °C; under `CCCCCCNC(=O)Nc1ccc(S(=O)(=O)N2CCC(Nc3ccc(CCNC[C@H](O)COc4ccc(O)cc4)cc3)CC2)cc1` (as salt: hydrochloride) [Example 108, 1-Hexyl-3-{4-[4-(4-{2-[(2S)-2-hydroxy-3-(4-hydroxy-phenoxy)-propylamino]-ethyl}-phenylamino)-piperidine-1-sulfonyl]-phenyl}-urea], 165 to 168 °C.
Compound `CCCCCCCCNC(=O)N1CCC(S(=O)(=O)c2ccc(CCNC[C@H](O)COc3ccc4c(c3)OCO4)cc2)CC1` [Example 49, 4-(4-{2-[(2S)-3-(Benzo[1,3]dioxol-5-yloxy)-2-hydroxy-propylamino]-ethyl}-benzenesulfonyl)-piperidine-1-carboxylic Acid Octylamide] showed a melting point of 84 to 86 °C.
Same read-out and setting: for `O=C(NCc1ccc(Cl)c(Cl)c1)N1CCC(Nc2ccc(CCNC[C@H](O)COc3ccc(O)cc3)cc2)CC1` (as salt: ammonium) [Example 21, 4-(4-{2-[(2S)-2-Hydroxy-3-(4-hydroxy-phenoxy)-propylamino]-ethyl}-phenylamino)-piperidine-1-carboxylic Acid 3,4-dichloro-benzylamide] the value was 94 to 97 °C; for `O=C(NC1CCCCC1)N1CCC(Nc2ccc(CCNC[C@H](O)COc3ccc(O)cc3)cc2)CC1` (as salt: salt) [Example 2], 77 to 86 °C; for `C=CCc1ccccc1OC[C@@H](O)CNCCc1ccc(NC2CCN(S(=O)(=O)c3ccc(N(CCCCCC)C(N)=O)cc3)CC2)cc1` [Example 110, N-[4-({4-[4-(2-{[(2S)-3-(2-allylphenoxy)-2-hydroxypropyl]amino}ethyl)anilino]-1-piperidinyl}sulfonyl)phenyl]-N-hexylurea], 68 to 70 °C.
For `O=C(O)COc1ccc(NC(=O)N2CCC(Nc3ccc(CCNC[C@H](O)COc4ccc(O)cc4)cc3)CC2)cc1` (as salt: salt) [Example 58, (4-{[4-(4-{2-[(2S)-2-Hydroxy-3-(4-hydroxy-phenoxy)-propylamino]-ethyl}-phenylamino)-piperidine-1-carbonyl]-amino}-phenoxy)-acetic Acid], the melting point is 175 °C.
On the same count and under the same terms, under `O=C(c1cc2cc(Br)ccc2[nH]1)N1CCC(Nc2ccc(CCNC[C@H](O)COc3ccc(O)cc3)cc2)CC1` (as salt: salt) [Example 96, (5-Bromo-1H-indol-2-yl)-[4-(4-{2-[(2S)-2-hydroxy-3-(4-hydroxy-phenoxy)-propylamino]-ethyl}-phenylamino)-piperidin-1-yl]-methanone] stands 114 to 116 °C; under `CCCCCCCCNC(=O)N1CCC(N(C(C)=O)c2ccc(CCNC[C@H](O)COc3ccc(O)cc3)cc2)CC1` (as salt: salt) [Example 8, 4-[Acetyl-(4-{2-[(2S)-2-hydroxy-3-(4-hydroxy-phenoxy)-propylamino]-ethyl}-phenyl)-amino]-piperidine-1-carboxylic Acid Octylamide], 71 to 74 °C; under `CCCCCCNC(=O)Nc1ccc(C(=O)N2CCC(Nc3ccc(CCNC[C@H](O)COc4ccc(O)cc4)cc3)CC2)cc1` [Example 93, 1-Hexyl-3-{4-[4-(4-{2-[(2S)-2-hydroxy-3-(4-hydroxy-phenoxy)-propylamino]-ethyl}-phenylamino)-piperidine-1-carbonyl]-phenyl}-urea], 108 to 111 °C.
What is called EC50 is the concentration that produces a half-maximal response. Regarding `Cc1ccsc1C(=O)N1CCC(Nc2ccc(CCNC[C@H](O)COc3cccc4[nH]c(=O)[nH]c34)cc2)CC1` [Example 101, 4-[(2S)-2-Hydroxy-3-(2-{4-[1-(3-methyl-thiophene-2-carbonyl)-piperidin-4-ylamino]-phenyl}-ethylamino)-propoxy]-1,3-dihydro-benzoimidazol-2-one], in series [1], the EC50 amounted to 10 nM and the “IA(β3)” value was determined as 0.63.
Consider `CC(C)NC(=O)N1CCC(Nc2ccc(CCNC[C@H](O)COc3ccc(O)cc3)cc2)CC1` [Example 11], for which, in series [1], the half-maximal effective concentration (EC50) was determined as 90 nM and the “IA(β3)” value is listed as 1.05.
For `O=C(c1n[nH]c2ccccc12)N1CCC(Nc2ccc(CCNC[C@H](O)COc3ccc(O)cc3)cc2)CC1` [Example 102, [4-(4-{2-[(2S)-2-Hydroxy-3-(4-hydroxy-phenoxy)-propylamino]-ethyl}-phenylamino)-piperidin-1-yl]-(1H-indazol-3-yl)-methanone] the same measures were 9 nM and 0.95.
For `COc1c(C(=O)N2CCC(Nc3ccc(CCNC[C@H](O)COc4ccc(O)cc4)cc3)CC2)sc2ccccc12` [Example 97, [4-(4-{2-[(2S)-2-Hydroxy-3-(4-hydroxy-phenoxy)-propylamino]-ethyl}-phenylamino)-piperidin-1-yl]-(3-methoxy-benzo[b]thiophen-2-yl)-methanone] the same measures were 34 nM and 0.79.
For `O=C(OCc1cc(F)ccc1F)N1CCC(Nc2ccc(CCNC[C@H](O)COc3ccc(O)cc3)cc2)CC1` [Example 122, 4-(4-{2-[(2S)-2-Hydroxy-3-(4-hydroxy-phenoxy)-propylamino]-ethyl}-phenylamino)-piperidine-1-carboxylic Acid 2,5-difluoro-benzyl Ester] the same measures were 100 nM and 0.81.
Take “4-[(2S)-2-Hydroxy-3-(2-{4-[-(1-methyl-1H-imidazole-4-sulfonyl)-piperidin-4-ylamino]-phenyl}-ethylamino)-propoxy]-phenol [Example 113]”: in series [1], the EC50 turned out to be 130 nM and the “IA(β3)” value stood at 1.
